# Assay results reported in publication PMC4843002, “Identification of pyrazolopyridazinones as PDEδ inhibitors” (Nature Communications, 2016).
# Target: PDEδ (Homo sapiens, UniProt O43924)
# Assay: competitive fluorescence polarization displacement assay
# Format: binding
# Experimental: The Kd values were determined by the fluorescence polarization competition-binding assay, which we developed before.
row,Kd [nM],SMILES
1,81 ± 21,COc1ccc(CNC(=O)CCCn2nc(C)c3c(C)n(-c4ccccc4)nc3c2=O)cc1 [2d]
2,136 ± 55,Cc1nn(CCCC(=O)NCc2ccco2)c(=O)c2nn(-c3ccccc3)c(C)c12 [2b]
3,96 ± 14,Cc1ccc(CNC(=O)CCCn2nc(C)c3c(C)n(-c4ccccc4)nc3c2=O)cc1 [2e]
4,42 ± 15,Cc1nn(CCCC(=O)NCc2ccccc2)c(=O)c2nn(-c3ccccc3)c(C)c12 [2c]
5,6 ± 2,Cc1ccc(-n2nc3c(=O)n(CCCC(=O)NCCc4ccccc4)nc(C)c3c2C)cc1 [2i]

# Second part, the molecule before the results:
row,SMILES,Kd [nM]
1,Cc1ccc(-n2nc3c(=O)n(CCCC(=O)NCc4ccco4)nc(C)c3c2C)cc1 [2g],50 ± 16
2,Cc1nn(CCCC(=O)NCCc2ccccc2)c(=O)c2nn(-c3ccccc3)c(C)c12 [2f],29 ± 7
3,Cc1ccc(-n2nc3c(=O)n(CCCC(=O)NCc4ccccc4)nc(C)c3c2C)cc1 [2h],17 ± 9
4,Cc1ccc(CCNC(=O)CCCn2nc(C)c3c(C)n(-c4ccc(C)cc4)nc3c2=O)cc1 [2j],5 ± 3
5,Cc1c(Cl)cccc1NC(=O)CCCn1nc(C)c2c(C)n(-c3ccccc3)nc2c1=O [2a],5 ± 2
